Read-outs that look alike come from different tables or passages of the source.
How the values were obtained:
[1] = target: T1, GluN1-1b (WT)/GluN2B (I111M) (Rattus norvegicus, UniProt P35439+Q00960, I111M); test: Ifenprodil dose-response, recordings from Xenopus oocytes; type: cell-based; conditions: mean ± s.d.
T1 construct: expressed in transfected cells; host or cells: Xenopus oocytes (per the earlier reading)

[2] = target: T2, GluN1-4b (Leu341Cys)/GluN2B (Asp210Cys) (Rattus norvegicus, UniProt P35439+Q00960); test: Ion channel activity of cysteine mutant receptors by TEVC (R1-R2 cross-link); type: cell-based; conditions: R1-R2 cross-link, non-reducing, even at 3 μM ifenprodil
T2 construct: expressed in transfected cells
Source text: (§1) To further validate the physiological relevance of the hetero-dimeric assembly, cysteine mutants at the subunit interface were engineered using the ifenprodil-bound GluN1b/GluN2B ATD structure as a guide in a context of the intact rat GluN1-4b/GluN2B receptors so that they would form spontaneous disulphide bonds if the mutated residues are proximal to each others. Toward this end, two pairs of cysteine mutants, GluN1-4b (Asn70Cys)/GluN2B (Thr324Cys) and GluN1-4b (Leu341Cys)/GluN2B (Asp210Cys) were designed, which “locked” the R1-R1 and R1-R2 interfaces, respectively FIG. 12a-b). The mutant receptors were then expressed in a mammalian cell culture, and analyzed for formation of disulphide-linked oligomers in western blots. When mutant receptors of one subunit were expressed with wild-type receptors of the other, they gave rise to monomeric bands (110 KDa and 170 KDa for GluN1-4b and GluN2B, respectively; arrow 2 and 3) identical to the wild-type GluN1-4b/GluN2B receptors in both reducing and non-reducing condition. […]
(§2) To understand the functional effects of “locking” the R1-R1 and R1-R2 interactions in the GluN1b/GluN2B ATDs, the ion channel activities of the cysteine mutant receptors were measured by TEVC. […]

[3] = target: T3, GluN1-4b (Leu341Cys)/GluN2B (Asp210Cys) (Rattus norvegicus, UniProt P35439+Q00960, D210C/L320C); test: as above; type: cell-based; conditions: R1-R2 cross-link broken by application of DTT
T3 construct: expressed in transfected cells
Source text: as §1, §2

[4] = target: T4, GluN1-1a (WT)/GluN2B (WT) (Rattus norvegicus, UniProt P35439+Q00960); test: Ifenprodil dose-response, recordings from Xenopus oocytes; type: cell-based; conditions: mean ± s.d.
T4 construct: expressed in transfected cells; host or cells: Xenopus oocytes (per the earlier reading)

[5] = target: mixture of the GluN1b and GluN2B ATD proteins (Xenopus laevis (GluN1-4b ATD) / Rattus norvegicus (GluN2B ATD), UniProt A0A1L8F5J9+Q00960, E186G/INS190SKKRNYENLDQLSYDNKRGPK/N350Q/N61Q); test: Isothermal titration calorimetry (ITC), direct binding to mixed ATD proteins; parameters: species or system Xenopus laevis GluN1-4b / Rattus Norvegicus GluN2B
[6] = target: T5, GluN1-4b (Asn70Cys)/GluN2B (Thr324Cys) (Rattus norvegicus, UniProt P35439+Q00960, N70C/T324C); test: Ion channel activity of cysteine mutant receptors by TEVC (R1-R1 cross-link); type: cell-based
T5 construct: expressed in transfected cells
Source text: as §1, §2

[7] = target: T6, GluN1-1b (F113S)/GluN2B (WT) (Rattus norvegicus, UniProt P35439+Q00960, F113S); test: Ifenprodil dose-response, recordings from Xenopus oocytes; type: cell-based; conditions: mean ± s.d.
T6 construct: expressed in transfected cells; host or cells: Xenopus oocytes (per the earlier reading)

[8] = target: T7, GluN1-1b (A75Q)/GluN2B (WT) (Rattus norvegicus, UniProt P35439+Q00960, A75Q); test: as above; type: cell-based; conditions: mean ± s.d.
T7 construct: expressed in transfected cells; host or cells: Xenopus oocytes (per the earlier reading)

GluN1b ATD = test: Isothermal titration calorimetry (ITC), GluN1b ATD alone; type: binding, Xenopus laevis; conditions: GluN1b ATD individually injected with ifenprodil
[9] = target: T8, GluN1-1b (WT)/GluN2B (Q110A) (Rattus norvegicus, UniProt P35439+Q00960, Q110A); test: Ifenprodil dose-response, recordings from Xenopus oocytes; type: cell-based; conditions: mean ± s.d.
T8 construct: expressed in transfected cells; host or cells: Xenopus oocytes (per the earlier reading)

[10] = target: T9, GluN1-1b (WT)/GluN2B (I111S) (Rattus norvegicus, UniProt P35439+Q00960, I111S); test: as above; type: cell-based; conditions: mean ± s.d.
T9 construct: expressed in transfected cells; host or cells: Xenopus oocytes (per the earlier reading)

GluN2B ATD = test: Isothermal titration calorimetry (ITC), GluN2B ATD alone; type: binding, Rattus Norvegicus; conditions: GluN2B ATD individually injected with ifenprodil
[11] = target: T10, GluN1-1b (WT)/GluN2B (I82S) (Rattus norvegicus, UniProt P35439+Q00960, I82S); test: Ifenprodil dose-response, recordings from Xenopus oocytes; type: cell-based; conditions: mean ± s.d.
T10 construct: expressed in transfected cells; host or cells: Xenopus oocytes (per the earlier reading)

[12] = target: T11, GluN1-1b (WT)/GluN2B (WT) (Rattus norvegicus, UniProt P35439+Q00960); test: as above; type: cell-based; conditions: mean ± s.d.
T11 construct: expressed in transfected cells; host or cells: Xenopus oocytes (per the earlier reading)

[13] = target: T12, GluN1/GluN2A receptors, GluN2A Met112Ile (Rattus norvegicus, UniProt P35439+Q00959, M112I); test: Ifenprodil sensitivity of mutant GluN1/GluN2A receptors; type: cell-based; conditions: GluN2A Met112Ile in GluN1/GluN2A receptors
T12 construct: expressed in transfected cells
Source text: Thus, the insensitivity of the GluN1/GluN2A receptors to phenylethanolamine may stem from a fundamental difference in a mode of subunit association between GluN1/GluN2A and GluN1/GluN2B at ATD.

[14] = target: T13, GluN1-1b (L135N)/GluN2B (WT) (Rattus norvegicus, UniProt P35439+Q00960, L135N); test: Ifenprodil dose-response, recordings from Xenopus oocytes; type: cell-based; conditions: mean ± s.d.
T13 construct: expressed in transfected cells; host or cells: Xenopus oocytes (per the earlier reading)

mixture of the GluN1b and GluN2B ATD proteins, sequence (Q00960 31-394, stated change not applied, other chains not shown): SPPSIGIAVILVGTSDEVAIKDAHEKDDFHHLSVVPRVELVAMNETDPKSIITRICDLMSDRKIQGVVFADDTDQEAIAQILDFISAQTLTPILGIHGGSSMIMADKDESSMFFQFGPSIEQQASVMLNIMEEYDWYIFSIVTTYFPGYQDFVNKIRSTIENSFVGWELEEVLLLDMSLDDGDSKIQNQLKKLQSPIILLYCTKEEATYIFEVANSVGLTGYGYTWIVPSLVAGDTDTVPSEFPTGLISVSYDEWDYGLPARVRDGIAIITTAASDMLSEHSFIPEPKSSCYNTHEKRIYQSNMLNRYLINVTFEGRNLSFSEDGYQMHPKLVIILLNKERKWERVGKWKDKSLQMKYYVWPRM
T9 sequence (Q00960 27-1482 I111S, other chains not shown): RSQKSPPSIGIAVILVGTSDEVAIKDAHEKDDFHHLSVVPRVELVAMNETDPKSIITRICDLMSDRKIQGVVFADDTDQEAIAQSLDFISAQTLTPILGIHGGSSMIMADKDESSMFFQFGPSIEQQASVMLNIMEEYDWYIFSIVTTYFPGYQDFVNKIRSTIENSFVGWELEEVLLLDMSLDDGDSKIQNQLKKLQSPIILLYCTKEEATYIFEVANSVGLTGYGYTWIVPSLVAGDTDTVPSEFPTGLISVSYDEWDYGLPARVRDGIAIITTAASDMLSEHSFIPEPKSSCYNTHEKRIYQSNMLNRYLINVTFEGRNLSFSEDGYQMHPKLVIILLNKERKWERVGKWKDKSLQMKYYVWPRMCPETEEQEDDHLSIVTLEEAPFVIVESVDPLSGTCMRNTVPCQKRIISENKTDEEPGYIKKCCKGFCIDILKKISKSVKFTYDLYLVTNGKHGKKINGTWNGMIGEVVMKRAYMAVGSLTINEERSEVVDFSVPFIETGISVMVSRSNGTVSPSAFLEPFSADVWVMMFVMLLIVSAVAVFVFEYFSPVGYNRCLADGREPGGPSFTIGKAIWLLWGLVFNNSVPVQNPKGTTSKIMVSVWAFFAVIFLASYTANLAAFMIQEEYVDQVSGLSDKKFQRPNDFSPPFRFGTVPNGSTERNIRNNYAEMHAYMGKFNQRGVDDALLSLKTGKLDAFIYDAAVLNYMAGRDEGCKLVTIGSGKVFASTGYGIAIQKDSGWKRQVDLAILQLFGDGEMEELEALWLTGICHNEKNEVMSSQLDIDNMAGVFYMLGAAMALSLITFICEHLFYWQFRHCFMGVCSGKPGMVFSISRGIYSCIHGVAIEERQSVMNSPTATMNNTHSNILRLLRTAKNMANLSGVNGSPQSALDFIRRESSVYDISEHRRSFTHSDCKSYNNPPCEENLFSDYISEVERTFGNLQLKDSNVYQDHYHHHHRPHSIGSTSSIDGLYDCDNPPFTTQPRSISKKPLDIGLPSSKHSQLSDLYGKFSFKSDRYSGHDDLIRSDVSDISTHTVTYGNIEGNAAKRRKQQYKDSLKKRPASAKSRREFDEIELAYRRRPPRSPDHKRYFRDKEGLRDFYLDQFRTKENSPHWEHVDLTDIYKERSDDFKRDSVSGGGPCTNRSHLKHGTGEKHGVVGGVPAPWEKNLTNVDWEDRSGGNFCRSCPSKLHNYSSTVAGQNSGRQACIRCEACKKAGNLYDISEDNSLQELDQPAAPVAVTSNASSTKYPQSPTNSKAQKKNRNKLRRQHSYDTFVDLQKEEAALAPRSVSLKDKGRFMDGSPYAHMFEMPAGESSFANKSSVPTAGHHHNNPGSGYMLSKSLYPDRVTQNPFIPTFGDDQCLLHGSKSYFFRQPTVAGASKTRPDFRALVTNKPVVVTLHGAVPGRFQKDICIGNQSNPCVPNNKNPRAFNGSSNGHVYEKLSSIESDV
T2 sequence (Q00960 27-1482 D210C, other chains not shown): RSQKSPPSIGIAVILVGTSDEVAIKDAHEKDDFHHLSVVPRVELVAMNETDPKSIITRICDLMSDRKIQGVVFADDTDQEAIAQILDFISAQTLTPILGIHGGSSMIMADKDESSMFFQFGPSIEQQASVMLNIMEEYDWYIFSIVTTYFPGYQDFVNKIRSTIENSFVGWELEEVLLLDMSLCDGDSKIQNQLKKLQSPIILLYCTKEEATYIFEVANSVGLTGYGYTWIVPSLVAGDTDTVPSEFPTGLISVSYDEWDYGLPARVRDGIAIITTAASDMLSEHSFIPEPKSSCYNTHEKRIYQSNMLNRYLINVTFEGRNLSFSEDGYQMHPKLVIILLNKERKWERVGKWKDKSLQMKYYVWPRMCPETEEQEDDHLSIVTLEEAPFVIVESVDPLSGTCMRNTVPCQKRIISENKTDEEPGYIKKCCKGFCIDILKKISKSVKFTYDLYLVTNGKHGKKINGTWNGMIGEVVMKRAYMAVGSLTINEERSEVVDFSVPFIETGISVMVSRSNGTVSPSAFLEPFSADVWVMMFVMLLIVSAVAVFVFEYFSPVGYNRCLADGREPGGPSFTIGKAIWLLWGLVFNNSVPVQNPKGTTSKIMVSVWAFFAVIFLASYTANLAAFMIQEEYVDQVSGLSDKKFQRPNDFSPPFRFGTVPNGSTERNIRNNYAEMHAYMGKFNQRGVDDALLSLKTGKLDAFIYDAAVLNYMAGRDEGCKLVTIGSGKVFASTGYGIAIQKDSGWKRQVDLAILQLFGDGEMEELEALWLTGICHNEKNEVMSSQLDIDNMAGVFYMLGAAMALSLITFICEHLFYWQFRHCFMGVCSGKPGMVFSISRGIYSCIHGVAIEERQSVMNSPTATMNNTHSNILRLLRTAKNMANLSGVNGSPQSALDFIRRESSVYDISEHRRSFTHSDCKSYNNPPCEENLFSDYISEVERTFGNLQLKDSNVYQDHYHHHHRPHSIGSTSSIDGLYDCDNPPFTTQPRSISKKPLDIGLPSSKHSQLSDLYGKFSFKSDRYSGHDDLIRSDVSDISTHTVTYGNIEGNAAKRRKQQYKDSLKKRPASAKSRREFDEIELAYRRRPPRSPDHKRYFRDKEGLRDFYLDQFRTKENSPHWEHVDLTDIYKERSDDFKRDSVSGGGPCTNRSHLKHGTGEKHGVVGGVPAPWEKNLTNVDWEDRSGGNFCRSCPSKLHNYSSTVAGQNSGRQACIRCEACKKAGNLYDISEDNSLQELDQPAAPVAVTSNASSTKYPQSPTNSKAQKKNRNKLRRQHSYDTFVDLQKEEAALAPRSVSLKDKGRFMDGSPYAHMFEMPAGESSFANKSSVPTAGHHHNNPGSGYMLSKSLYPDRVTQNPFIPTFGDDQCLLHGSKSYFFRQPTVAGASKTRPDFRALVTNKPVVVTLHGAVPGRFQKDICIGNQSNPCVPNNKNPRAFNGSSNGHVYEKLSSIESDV
T3 sequence (Q00960 27-1482 D210C, other chains not shown): as above

Row | SMILES | % inhibition [1] [%] | ifenprodil inhibition [2] | ifenprodil sensitivity after breaking the disulphide cross-link [3] | % inhibition [4] [%] | Kd [5] [nM] | effect of the disulphide bond on ifenprodil sensitivity [6] | % inhibition [7] [%] | % inhibition [8] [%] | binding (heat) by ITC (GluN1b ATD) | % inhibition [9] [%] | % inhibition [10] [%] | binding (heat) by ITC (GluN2B ATD) | % inhibition [11] [%] | % inhibition [12] [%] | ifenprodil sensitivity [13] | % inhibition [14] [%] | Kd ([5]; ITC, mixture of GluN1b and GluN2B ATD proteins, read-out: Kd) [nM]
1 | C[C@@H]([C@H](O)c1ccc(O)cc1)N1CCC(Cc2ccccc2)CC1 (racemic) [ifenprodil] | 93.0 ± 2.2 | almost completely abolished | regain sensitivity to ifenprodil | 95.0 ± 2.5 | 320 | only a minor effect | 87.7 ± 1.4 | 82.1 ± 1.4 | no evidence of binding | 91.5 ± 2.2 | 69.3 ± 2.6 | no evidence of binding | 55.7 ± 0.7 | 95.2 ± 2.0 | did not confer | 90.0 ± 3.7 | –
2 | C[C@@H](CN1CCC(Cc2ccccc2)CC1)[C@@H](O)c1ccc(O)cc1 [Ro 25-6981] | – | – | – | – | – | – | – | – | – | – | – | – | – | – | – | – | 60
